Consider 25 compounds from patent US6635641B2 (Agouron Pharmaceuticals, Inc., priority 2000, dated 2003).

Where a name gives a salt, the structure may show the parent alone.

The Ki is the dissociation constant of the complex between target and ligand, obtained from inhibition or displacement. A high value points to lower affinity. The inhibition is the change of the read-out against control, counted positive when it falls. As a reminder, the IC50 is the concentration at which inhibition is half-maximal.

T1 sequence (P35968 with tags, fused parts or gaps DEL940-989/E990V limits assumed): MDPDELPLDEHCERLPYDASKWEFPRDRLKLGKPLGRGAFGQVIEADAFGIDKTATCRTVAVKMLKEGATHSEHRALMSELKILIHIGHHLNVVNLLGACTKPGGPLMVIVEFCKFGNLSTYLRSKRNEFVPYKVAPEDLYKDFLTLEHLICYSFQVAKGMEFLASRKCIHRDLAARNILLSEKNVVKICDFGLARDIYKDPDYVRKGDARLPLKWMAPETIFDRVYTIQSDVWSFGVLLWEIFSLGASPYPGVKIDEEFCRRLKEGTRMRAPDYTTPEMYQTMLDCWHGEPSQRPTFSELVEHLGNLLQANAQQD
T2 sequence (P35968 with tags, fused parts or gaps DEL940-989/E990V limits assumed): as above

The first assay addresses T1, phosphorylated VEGF-R2Δ50 (FLVK-P) (Homo sapiens, UniProt P35968, DEL940-989/E990V).
T1 construct: VEGF-R2Δ50 contains residues 806-939 and 990-1171; made in house; host or cells: baculovirus/insect cells
Description: VEGF-R2 coupled spectrophotometric assay, phosphorylated construct (FLVK-P). The format is biochemical.
Conditions: not given
From the text:
A construct (VEGF-R2Δ50) of the cytosolic domain of human vascular endothelial growth factor receptor 2 (VEGF-R2) lacking the 50 central residues of the 68 residues of the kinase insert domain was expressed in a baculovirus/insect cell system. Of the 1356 residues of full-length VEGF-R2, VEGF-R2Δ50 contains residues 806-939 and 990-1171, and also one point mutation (E990V) within the kinase insert domain relative to wild-type VEGF-R2. See commonly assigned, co-pending U.S. patent application Ser. No. 09/390,326, filed Sep. 7, 1999, incorporated by reference herein, for discussion of VEGF constructs and expression systems. Autophosphorylation of the purified construct was performed by incubation of the enzyme at a concentration of 4 μM in the presence of 3 mM ATP and 40 mM MgCl2 in 100 mM Hepes, pH 7.5, containing 5% glycerol and 5 mM DTT, at 4° C. for 2 h. […] See Parast et al., Biochemistry, 37, 16788-16801 (1998).
The production of ADP from ATP that accompanies phosphoryl transfer was coupled to oxidation of NADH using phosphoenolpyruvate (PEP) and a system having pyruvate kinase (PK) and lactic dehydrogenase (LDH). The oxidation of NADH was monitored by following the decrease of absorbance at 340 nm (e340=6.22 cm^−1 mM^−1) using a Beckman DU 650 spectrophotometer. Assay conditions for phosphorylated VEGF-R2Δ50 (indicated as FLVK-P in the tables below) were the following: 1 mM PEP; 250 μM NADH; 50 units of LDH/mL; 20 units of PK/mL; 5 mM DTT; 5.1 mM poly(E4Y1); 1 mM ATP; and 25 mM MgCl2 in 200 mM Hepes, pH 7.5. Assay conditions for unphosphorylated VEGF-R2Δ50 (indicated as FLVK in the tables) were the following: 1 mM PEP; 250 μM NADH; 50 units of LDH/mL; 20 units of PK/mL; 5 mM DTT; 20 mM poly(E4Y1); 3 mM ATP; and 60 mM MgCl2 and 2 mM MnCl2 in 200 mM Hepes, pH 7.5. Assays were initiated with 5 to 40 nM of enzyme. Ki values were determined by measuring enzyme activity in the presence of varying concentrations of test compounds. The data were analyzed using Enzyme Kinetic and Kaleidagraph software.
The compound `CC(C)c1cccc(NC(=O)c2cccc(CSc3cnccn3)c2)c1` [Example A-7, N-(3-Isopropylphenyl)-3-[(pyrazin-2-yl)sulfanylmethyl]benzamide] registered a Ki of 26 nM.

Regarding `Cc1c(Br)cc(NC(=O)c2cccc(CCc3cncc4ccccc34)c2)cc1Br` [Example S-5, N-(3,5-Dibromo-4-methyl-phenyl)-3-(2-isoquinolin-4-yl-ethyl)-benzamide], the affinity, expressed as Ki, was 4.2 nM.

Staying with this assay, now noted: @ 50 nM; read-out: FLVK-P percent inhibition.
As to `Cc1ccc2cc(NC(=O)c3cccc(CCc4cncc5ccccc45)c3)ccc2n1` [Example S-4, 3-(2-Isoquinolin-4-yl-ethyl)-N-(2-methyl-quinolin-6-yl)-benzamide], the inhibition at 0.05 µM was found to be 20%.

Another assay concerns the target T2, unphosphorylated VEGF-R2Δ50 (FLVK) (Homo sapiens, UniProt P35968, DEL940-989/E990V).
T2 construct: VEGF-R2Δ50 contains residues 806-939 and 990-1171; made in house; host or cells: baculovirus/insect cells
Kind of assay: VEGF-R2 coupled spectrophotometric assay, unphosphorylated construct (FLVK).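 Further: Baculovirus-expressed cytosolic kinase domain, ADP formation linked via pyruvate kinase and lactate dehydrogenase to NADH oxidation, read as falling absorbance at 340 nm.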 The format is biochemical.
Conditions: not given
In turn, `COc1ccc(Nc2cc(CCc3cccc(C(=O)Nc4ccc(N5CCN(C(=O)OC(C)(C)C)CC5)c(C(F)(F)F)c4)c3)[nH]n2)cn1` [Example G-9, 3-{2-[5-(6-Methoxypyridin-3-yl)amino-2H-pyrazol-3-yl]-ethyl}-N-[4-(4-t-butoxycarbonylpiperazin-1-yl)-3-trifluoromethylphenyl]benzamide] had a Ki of 2.5 nM. On to `CC1CCc2cc(NC(=O)c3ccc(F)c(OCc4cncc5ccccc45)c3)ccc2N1` (stereo not drawn) [Example O-3, 4-Fluoro-N-(2-methyl-1,2,3,4-tetrahydroquinolin-6-yl)-3-(isoquinolin-4-yl-methoxy)-benzamide bistrifluoroacetic acid salt], for which the affinity, expressed as Ki, was 5.8 nM. The same measure, in the same setting: under `Cc1cc(NC(=O)c2cc(CCc3cncc4ccccc34)c(F)cc2F)ccc1C(C)C` [Example S-8, 2,4-Difluoro-N-(4-isopropyl-3-methyl-phenyl)-5-(2-isoquinolin-4-yl-ethyl)-benzamide] stands 1.4 nM; under `Cc1ccc(C(=O)Nc2cccc(CSc3ncnc4[nH]ncc34)c2)cc1Br` [Example V-1], 2 nM.

The assay is the same for the next values; noted with them: 0.05 µM.
Take “5-{2-[3-(Piperazin-1-yl-trifluoromethyl-phenylcarbamoyl)-phenyl]-ethyl}nicotinic acid methyl ester dihydrochloride [CC-2]”: the FLVK percent inhibition was found to be 30% @. The compound `Cl.Cl.NC(=O)c1cncc(CCc2cccc(C(=O)Nc3ccc(N4CCNCC4)c(C(F)(F)F)c3)c2)c1` [CC-1, 5-{2-[3-(Piperazin-1-yl-trifluoromethyl-phenylcarbamoyl)-phenyl]-ethyl}-nicotinamide dihydrochloride] came in with an FLVK percent inhibition of 20% @.

Staying with this assay, now noted: @ 50 nM; read-out: FLVK percent inhibition.
As to `CCC(C(=O)Nc1cccc(CSc2ncnc3[nH]ncc23)c1)c1ccccc1C` (racemic) [Example V-15], the inhibition at 0.05 µM amounted to 30%.

As to `O=C(Nc1cccc2c1OC(F)(F)O2)c1cccc(CCc2cncc3ccccc23)c1` [Example O-2, N-(2,2-Difluoro-benzo[1,3]dioxol-4-yl)-3-(2-isoquinolin-4-yl-ethyl)-benzamide trifluoro-acetic acid salt], the inhibition at 0.05 µM is 13%.

For the compound `O=C(Nc1ccc(-n2ccnc2)c(C(F)(F)F)c1)c1ccc(F)c(OCc2cccnc2)c1` [Example R-21, 4-Fluoro-N-(4-imidazol-1-yl-3-trifluoromethyl-phenyl)-3-(pyridin-3-ylmethoxy)-benzamide], the inhibition at 0.05 µM was 42%. As to `O=C(Nc1ccc(-n2cncn2)c(C(F)(F)F)c1)c1ccc(F)c(OCc2cccnc2)c1` [Example R-23, 4-Fluoro-3-(pyridin-3-ylmethoxy)-N-(4-[1,2,4]triazol-1-yl-3-trifluoromethyl-phenyl)-benzamide], the inhibition at 0.05 µM was determined as 50%. On to `O=C(Nc1cc(Cl)c(-n2ccnc2)c(Cl)c1)c1ccc(F)c(OCc2cccnc2)c1` [Example R-24, N-(3,5-Dichloro-4-imidazol-1-yl-phenyl)-4-fluoro-3-(pyridin-3-ylmethoxy)-benzamide], for which the inhibition at 0.05 µM worked out at 62%.

For the compound `O=C(Nc1cccc(CSc2ncnc3[nH]ncc23)c1)c1ccc(Oc2ccccc2)cc1` [Example V-6, N-{3-[(1H-pyrazolo[3,4-d]-pyrimidin-4-yl)sulfanylmethyl]phenyl}-(4-phenoxy)benzamide], the inhibition at 0.05 µM worked out at 12%.

Take `O=C(Nc1cccnc1)Nc1cccc(CSc2ncnc3[nH]ncc23)c1` [Example V-8, N-{3-[(1H-pyrazolo[3,4-d]pyrimidin-4-ylsulfanyl)methyl]phenyl}-N′-(pyridin-3-yl)urea]: the inhibition at 0.05 µM is 0%. As to `O=C(Nc1cccc(CSc2ncnc3[nH]ncc23)c1)c1ccc2ncccc2c1` [Example V-11, N-{3-[(1H-pyrazolo[3,4-d]-pyrimidin-4-yl)sulfanylmethyl]phenyl}-quinoline-6-carboxamide], the inhibition at 0.05 µM was 18%. Take `O=C(Nc1cccc(CSc2ncnc3[nH]ncc23)c1)c1cc2cc(F)ccc2[nH]1` [Example V-12, 5-Fluoro-N-{3-[(1H-pyrazolo[3,4-d]-pyrimidin-4-yl)sulfanylmethyl]-phenyl}-indole-2-carboxamide]: the inhibition at 0.05 µM amounted to 18%. In the case of `O=C(Nc1cccc(CSc2ncnc3[nH]ncc23)c1)c1ccc2cc[nH]c2c1` [Example V-13, N-{3-[(1H-pyrazolo[3,4-d]-pyrimidin-4-yl)sulfanylmethyl]phenyl}-indole-6-carboxamide], the inhibition at 0.05 µM turned out to be 17%.

The assay is the same for the next values; noted with them: @ 50 μM; read-out: FLVK percent inhibition.
On to `O=C(Nc1cccc(CSc2ncnc3[nH]ncc23)c1)c1ccc(O)c(Br)c1` [Example V-10, 3-Bromo-4-hydroxy-N-{3-[(1H-pyrazolo[3,4-d]-pyrimidin-4-yl)sulfanylmethyl]phenyl}-benzamide], for which the inhibition at 50 µM was found to be 16%.

The assay is the same for the next values; noted with them: unphosphorylated VEGF-R2 construct.
Compound `Nc1ccc(CCc2cccc(C(=O)Nc3ccc(N4CCNCC4)c(C(F)(F)F)c3)c2)cn1` [AA-2, 3-[2-(6-Amino-pyridin-3-yl)-ethyl]-N-(4-piperazin-1-yl-3-trifluoromethyl-phenyl)-benzamide dihydrochloride] returned a Ki of 25 nM. As to `O=C(Nc1ccc(N2CCNCC2)c(C(F)(F)F)c1)c1cccc(CCc2cnc3[nH]cnc3c2)c1` [BB-1, 3-[2-(3H-Imidazo[4,5-b]pyridin-6-yl)-ethyl]-N-(4-piperazin-1-yl-3-trifluoromethyl-phenyl)-benzamide dihydrochloride], the Ki stood at 10.8 nM. `CC(C)(C)c1ccc(C(=O)Nc2cccc(CSc3ncnc4[nH]ncc34)c2)cc1` [Example V-5, N-{3-[(1H-pyrazolo[3,4-d]-pyrimidin-4-yl)sulfanylmethyl]phenyl}-4-t-butylbenzamide] returned an inhibition constant Ki of 1.4 nM.

`O=C(Nc1cccc(CSc2ncnc3[nH]ncc23)c1)Nc1cc(C(F)(F)F)cc(C(F)(F)F)c1` [Example V-7, N-{3-[(1H-pyrazolo[3,4-d]pyrimidin-4-ylsulfanyl)methyl]phenyl}-N′-[3,5-bis-(trifluoromethyl)phenyl]urea] came in with an inhibitory constant (Ki) of 2.6 nM.

On to `CC(C)(C)c1cc(C(=O)Nc2cccc(CSc3ncnc4[nH]ncc34)c2)cc(C(C)(C)C)c1` [Example V-9, N-{3-[(1H-pyrazolo[3,4-d]-pyrimidin-4-yl)sulfanylmethyl]phenyl}-(3,5-di-t-butyl)benzamide], for which the affinity, expressed as Ki, was 22 nM.

The test system of the next assay is human umbilical vein endothelial cells (HUVEC). Kind of assay: HUVEC proliferation assay (VEGF-stimulated, MTT). It counts as cell-based. To be noted: Homo sapiens, HUVEC; read-out: HUVEC IC50. The procedure:
This assay determines the ability of a test compound to inhibit the growth factor-stimulated proliferation of human umbilical vein endothelial cells (“HUVEC”). HUVEC cells (passage 3-4, Clonetics, Corp.) were thawed into EGM2 culture medium (Clonetics Corp) in T75 flasks. Fresh EGM2 medium was added to the flasks 24 hours later. Four or five days later, cells were exposed to another culture medium (F12K medium supplemented with 10% fetal bovine serum (FBS), 60 μg/ml endothelial cell growth supplement (ECGS), and 0.1 mg/ml heparin). Exponentially-growing HUVEC cells were used in experiments thereafter. Ten to twelve thousand HUVEC cells were plated in 96-well dishes in 100 μl of rich, culture medium (described above). The cells were allowed to attach for 24 hours in this medium. The medium was then removed by aspiration and 105 μl of starvation media (F12K+1% FBS) was added to each well. After 24 hours, 15 μl of test agent dissolved in 1% DMSO in starvation medium or this vehicle alone was added into each treatment well; the final DMSO concentration was 0.1%. One hour later, 30 μl of VEGF (30 ng/ml) in starvation media was added to all wells except those containing untreated controls; the final VEGF concentration was 6 ng/ml. Cellular proliferation was quantified 72 hours later by MTT dye reduction, at which time cells were exposed for 4 hours MTT (Promega Corp.). Dye reduction was stopped by addition of a stop solution (Promega Corp.) and absorbance at 595 λ was determined on a 96-well spectrophotometer plate reader.
As to `CC(C)c1cccc(NC(=O)c2cccc(CSc3cnccn3)c2)c1` [Example A-7, N-(3-Isopropylphenyl)-3-[(pyrazin-2-yl)sulfanylmethyl]benzamide], the IC50 was greater than 700 nM. Same read-out and setting: with `Cc1ccc2cc(NC(=O)c3cccc(CCc4cncc5ccccc45)c3)ccc2n1` [Example S-4, 3-(2-Isoquinolin-4-yl-ethyl)-N-(2-methyl-quinolin-6-yl)-benzamide] the figure was greater than 300 nM. In the case of `Cc1c(Br)cc(NC(=O)c2cccc(CCc3cncc4ccccc34)c2)cc1Br` [Example S-5, N-(3,5-Dibromo-4-methyl-phenyl)-3-(2-isoquinolin-4-yl-ethyl)-benzamide], the half-inhibitory concentration (IC50) is greater than 300 nM.

The assay is the same for the next values; noted with them: Homo sapiens; HUVEC proliferation with albumin; read-out: Huvec + Albumin IC50.
Regarding `Nc1ccc(CCc2cccc(C(=O)Nc3ccc(N4CCNCC4)c(C(F)(F)F)c3)c2)cn1` [AA-2, 3-[2-(6-Amino-pyridin-3-yl)-ethyl]-N-(4-piperazin-1-yl-3-trifluoromethyl-phenyl)-benzamide dihydrochloride], the IC50 was found to be 80 nM. Consider `O=C(Nc1ccc(N2CCNCC2)c(C(F)(F)F)c1)c1cccc(CCc2cnc3[nH]cnc3c2)c1` [BB-1, 3-[2-(3H-Imidazo[4,5-b]pyridin-6-yl)-ethyl]-N-(4-piperazin-1-yl-3-trifluoromethyl-phenyl)-benzamide dihydrochloride], for which the 50% inhibitory concentration (IC50) is 940 nM.
